Assay results taken from patent US10598672B2, “Methods and compositions for diagnosing and treating loss and/or distortion of taste or smell” (Cyrano Therapeutics, Inc., priority 2014, dated 2020).
Marks after values point to notes of the source that are not given here.

Legend:
Format in all cases: in vivo, human
patients with hyposmia = experiment: Olfactometry: DT, RT, ME and H for pyridine, nitrobenzene, thiophene, amyl acetate
[1] = system: patients with taste dysfunction; experiment: Subjective taste acuity and flavor perception (0-100 scale); details: for FLAVOR PERCEPTION: DEGREE OF IMPROVEMENT / TASTE ACUITY: DEGREE OF IMPROVEMENT: Mean ± SEM
Protocol: Subjective statements of acuity loss were quantitated by use of a scale from 0-100 with 100 reflecting total loss of taste function, 0 reflecting no loss and a number between 0-100 reflecting appropriate degree of loss. Mean±SEM of loss degree was measured among all patients and each pathology initiating taste dysfunction.
Subjective statements of taste acuity loss and loss of flavor perception were quantitated by use of a scale from 0-100 with 100 reflecting total loss of taste acuity or flavor perception, 0 reflecting no loss and a number between 0-100 reflecting appropriate degree of loss. […] Mean±SEM of loss degree was measured among all patients and each pathology initiating taste dysfunction.
[…] Saliva Shh and measurements of taste function by use of subjective responses of acuity and flavor perception and in olfactometry was measured at intervals of 2-6 months in these patients.

[2] = Body weight with calibrated clinical scale; details: 10 patients
Protocol: Serum theophylline levels were measured by fluorescence polarization at each treatment condition. Body weight was measured with a calibrated clinical scale during each study condition and reported at the final measurement in each study condition.

[3] = system: patients with hyposmia and hypogeusia; experiment: Adverse effects during intranasal theophylline pilot study; details: intranasal drug use, 10 patients, 4 weeks
Description: We performed an open-label pilot study in patients with hyposmia and hypogeusia under the following 3 conditions: (1) before treatment, (2) after oral theophylline treatment, and (3) after intranasal theophylline treatment. Under each condition, we performed subjective evaluations of taste or smell functions, quantitative measurements of taste (gustometry) and smell (olfactometry), and measurements of serum theophylline level and body weight.
A pilot study of intranasal theophylline treatment was then initiated among these 10 patients. This trial was an investigator initiated phase 1, open-label, single-source, controlled pilot study. Intranasal drug therapy reflected a compassionate trial of a potentially more useful therapeutic method to improve hyposmia (and hypogeusia) than oral theophylline. Before the intranasal trial, risks and benefits were explained and the patients signed an informed consent.
Each patient delivered the theophylline dose in each naris once daily throughout the study. Patients underwent evaluation 1, 2, and 4 weeks during drug use with the same measurements used for the oral study.

[4] = oral theophylline dose 200 mg (6 patients)
[5] = oral theophylline dose 400 mg (6 patients)
[6] = oral theophylline dose 600 mg (14 patients)
[7] = oral theophylline dose 800 mg (5 patients)
[8] = MEN, patient number 38, after oral theophylline
[9] = WOMEN, patient number 41, after oral theophylline
[10] = all patients, patient number 79, after oral theophylline

With `Cn1c(=O)c2[nH]cnc2n(C)c1=O` [theophylline] the “PYRIDINE DT” value (patients with hyposmia; [4]) was 8.4 ± 0.8 BU, the “PYRIDINE H” value (patients with hyposmia; [4]) was −34 ± 13% and the “PYRIDINE ME” value (patients with hyposmia; [4]) was 35 ± 15%. The “PYRIDINE RT” value (patients with hyposmia; [4]) was 9.8 ± 0.9 BU, the “THIOPHENE DT” value (patients with hyposmia; [4]) was 8.2 ± 1.8 BU and the “THIOPHENE H” value (patients with hyposmia; [4]) was −14 ± 11%. The “THIOPHENE RT” value (patients with hyposmia; [4]) was 8.8 ± 2.0 BU, the “Thiophene magnitude estimation (%)” value (patients with hyposmia; [4]) was 10 ± 15 BU and the “AMYL ACETATE DT” value (patients with hyposmia; [5]) was 6.0 ± 1.0 BU. For the same compound, the “AMYL ACETATE H” value (patients with hyposmia; [5]) was 0 ± 0%, the “AMYL ACETATE ME” value (patients with hyposmia; [5]) was 17 ± 10% and the “AMYL ACETATE RT” value (patients with hyposmia; [5]) was 6.2 ± 1.7 BU. The “PYRIDINE DT” value (patients with hyposmia; [5]) was 7.0 ± 1.8 BU, the “PYRIDINE H” value (patients with hyposmia; [5]) was −35 ± 15% and the “PYRIDINE ME” value (patients with hyposmia; [5]) was 43 ± 12%. For the same compound, the “PYRIDINE RT” value (patients with hyposmia; [5]) was 7.8 ± 2.2 BU, the “THIOPHENE DT” value (patients with hyposmia; [5]) was 6.2 ± 1.9 BU and the “THIOPHENE H” value (patients with hyposmia; [5]) was −6 ± 1%. The “THIOPHENE RT” value (patients with hyposmia; [5]) was 9.2 ± 2.4 BU, the “Thiophene magnitude estimation (%)” value (patients with hyposmia; [5]) was 0 ± 0 BU and the “AMYL ACETATE DT” value (patients with hyposmia; [6]) was 5.0 ± 1.2^c BU. For the same compound, the “AMYL ACETATE H” value (patients with hyposmia; [6]) was 14 ± 5%, the “AMYL ACETATE ME” value (patients with hyposmia; [6]) was 24 ± 8% and the “AMYL ACETATE RT” value (patients with hyposmia; [6]) was 5.4 ± 1.2^b BU. The “PYRIDINE DT” value (patients with hyposmia; [6]) was 5.2 ± 0.9^d BU, the “PYRIDINE H” value (patients with hyposmia; [6]) was −10 ± 8% and the “PYRIDINE ME” value (patients with hyposmia; [6]) was 50 ± 8%. For the same compound, the “PYRIDINE RT” value (patients with hyposmia; [6]) was 5.8 ± 1.1^d BU, the “THIOPHENE DT” value (patients with hyposmia; [6]) was 6.2 ± 1.1 BU and the “THIOPHENE H” value (patients with hyposmia; [6]) was −19 ± 7%. The “THIOPHENE RT” value (patients with hyposmia; [6]) was 7.9 ± 1.0 BU, the “Thiophene magnitude estimation (%)” value (patients with hyposmia; [6]) was 26 ± 7 BU and the “AMYL ACETATE DT” value (patients with hyposmia; [7]) was 4.0 ± 1.3^d BU. For the same compound, the “AMYL ACETATE H” value (patients with hyposmia; [7]) was 15 ± 12%, the “AMYL ACETATE ME” value (patients with hyposmia; [7]) was 17 ± 11% and the “AMYL ACETATE RT” value (patients with hyposmia; [7]) was 4.5 ± 1.0^b BU. The “PYRIDINE DT” value (patients with hyposmia; [7]) was 2.8 ± 1.2^a BU, the “PYRIDINE H” value (patients with hyposmia; [7]) was −20 ± 13% and the “PYRIDINE ME” value (patients with hyposmia; [7]) was 36 ± 15%. For the same compound, the “PYRIDINE RT” value (patients with hyposmia; [7]) was 4.0 ± 1.8^d BU, the “THIOPHENE DT” value (patients with hyposmia; [7]) was 4.0 ± 1.5^d BU and the “THIOPHENE H” value (patients with hyposmia; [7]) was −15 ± 16%. For the same compound, the “THIOPHENE RT” value (patients with hyposmia; [7]) was 5.2 ± 1.4 BU, the “Thiophene magnitude estimation (%)” value (patients with hyposmia; [7]) was 29 ± 16 BU and the “FLAVOR PERCEPTION: I[…]” value [1, 8] was 22. For the same compound, the “FLAVOR PERCEPTION: I[…], figure in parentheses” value (“FLAVOR PERCEPTION: I[…], figure” for short) [1, 8] was 58, the “TASTE ACUITY: I[…]” value [1, 8] was 21 and the “TASTE ACUITY: I[…], figure in parentheses” value (from here on “TASTE ACUITY: I[…], figure”) [1, 8] was 55. For the same compound, the “FLAVOR PERCEPTION: DEGREE OF IMPROVEMENT” value [1, 8] was 18 ± 4%, the “TASTE ACUITY: DEGREE OF IMPROVEMENT” value [1, 8] was 20 ± 5% and the “FLAVOR PERCEPTION: I[…]” value [1, 9] was 23. For the same compound, the “FLAVOR PERCEPTION: I[…], figure” value [1, 9] was 54, the “TASTE ACUITY: I[…]” value [1, 9] was 24 and the “TASTE ACUITY: I[…], figure” value [1, 9] was 59. For the same compound, the “FLAVOR PERCEPTION: DEGREE OF IMPROVEMENT” value [1, 9] was 36 ± 6%, the “TASTE ACUITY: DEGREE OF IMPROVEMENT” value [1, 9] was 35 ± 6% and the “patients with improvement in both subjective taste acuity and flavor perception” value ([1]; after oral treatment 200-1000 mg for 2-10 months) was “about 60%”. The “FLAVOR PERCEPTION: I[…]” value [1, 10] was 45, the “FLAVOR PERCEPTION: I[…], figure” value [1, 10] was 63 and the “TASTE ACUITY: I[…]” value [1, 10] was 45. The “TASTE ACUITY: I[…], figure” value [1, 10] was 63, the “FLAVOR PERCEPTION: DEGREE OF IMPROVEMENT” value [1, 10] was 24 ± 4% and the “TASTE ACUITY: DEGREE OF IMPROVEMENT” value [1, 10] was 28 ± 4^+ %. The “weight increase from pretreatment values, mean (SEM)” value ([2]; after intranasal treatment) was 2.5 (0.5) kg, the “weight increase from pretreatment values, mean (SEM)” value ([2]; after oral treatment) was 1.5 (0.4) kg and the adverse effects [3] was “No adverse effects”.
